Like-named read-outs stand apart in the source and are kept apart here. Values belong to the molecule of their own block, whether it stands above or below them.
Tests used:
Format in all cases: biochemical
M2PYK [1] = biological target: T1, M2PYK (Homo sapiens, UniProt P14618); assay: PYK enzyme activity assay, dose response with and without DTT and Ser
T1 construct: gene PKM; recombinant His-tagged WT M2 isoform

M2PYK [2] = biological target: T1, M2PYK; assay: enzyme activity assay, competition of activator Ser with inhibitors Ala and Phe
M2PYK [3] = biological target: T1, M2PYK; assay: LDH-coupled enzyme assay with and without F-1,6-BP; protection from S-nitrosation (biotin switch)

T1 sequence (P14618 2-531): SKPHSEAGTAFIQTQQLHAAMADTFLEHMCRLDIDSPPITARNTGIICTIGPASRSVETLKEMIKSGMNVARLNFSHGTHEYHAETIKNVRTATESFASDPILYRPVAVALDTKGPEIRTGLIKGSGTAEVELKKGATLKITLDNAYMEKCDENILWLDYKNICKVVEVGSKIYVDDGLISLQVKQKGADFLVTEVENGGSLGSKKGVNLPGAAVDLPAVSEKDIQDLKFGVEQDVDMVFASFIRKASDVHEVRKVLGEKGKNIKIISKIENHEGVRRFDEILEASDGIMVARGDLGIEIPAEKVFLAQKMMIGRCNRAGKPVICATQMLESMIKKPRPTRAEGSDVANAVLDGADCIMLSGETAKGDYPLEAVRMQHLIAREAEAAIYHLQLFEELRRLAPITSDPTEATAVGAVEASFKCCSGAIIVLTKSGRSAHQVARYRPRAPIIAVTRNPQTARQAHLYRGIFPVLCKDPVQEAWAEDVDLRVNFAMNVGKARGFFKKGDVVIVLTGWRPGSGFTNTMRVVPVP

IC50 (M2PYK [1]; read-out: IC50): 45 µM
SMILES: C[C@H](N)C(=O)O [L-alanine]

SMILES: N[C@@H](Cc1ccccc1)C(=O)O [L-phenylalanine]
IC50 (M2PYK [1]): 57 µM

SMILES: N[C@@H](CO)C(=O)O [Ser]
enzyme activity assay, competition of activator Ser with inhibitors Ala and Phe (M2PYK [2]): Increasing Ser concentration further reduces the inhibitory effect of Ala which is expected as Ala and Ser compete

SMILES: O=P(O)(O)OC[C@H]1OC(O)(COP(=O)(O)O)[C@@H](O)[C@@H]1O (stereo partly shown) [fructose 1,6-bisphosphate]
LDH-coupled enzyme assay with and without F-1,6-BP; protection from S-nitrosatio (M2PYK [3]): M2PYK complexes with FBP and Phe stabilise M2PYK in a tetrameric state and reduce the amount of nitrosation
